# In patent US12448377B2, “Heterocyclic compound” (Takeda Pharmaceutical Company Limited, priority 2019, dated 2025):
# Assays:
# [1] = test system: SD rats; test: Evaluation of wake-promoting effects in SD rats (EEG/EMG); type: in vivo, rat; settings: s.c., at ZT5, 3 hr after administration
# Method: The wake-promoting effects were evaluated by measuring the electroencephalogram (EEG) and electromyogram (EMG) in SD rats (Crl:CD(SD), CHARLES RIVER LABORATORIES JAPAN, Kanagawa, Japan.) using chronic experiment telemetry automatic measurement system (PhysioTel® and PONEMAH™, Data Sciences International Inc., Minnesota, U.S.A.). Under pentobarbital sodium anesthesia (50 mg/kg, intraperitoneal, Somnopentyl®, Kyoritsu Seiyaku, Tokyo, Japan), […] male SD rats were surgically implanted with a transmitter. Bilateral EEG leads were positioned at the parietal area in contact with the dura and fixed to the cranium with dental cement. Bilateral EMG leads were fixed to the back cervical muscles. The transmitter was implanted under the skin of the back, and the head skin was sutured. After recovery for at least 1 week, the cortical EEG and EMG signals in SD rats were recorded using a high-end data acquisition and real-time analysis system (PONEMAH™). The signals were automatically scored in 4 sec epochs by a sleep scoring system (SleepSign®, Kissei Comtec Co., Ltd.). Test compound (1 or 10 mg/kg, Table 3) dissolved in a mixed solution containing 10% DMSO, 10% Cremophor EL, 20% PEG400 and 60% H2O, or vehicle (i.e., a mixed solution containing 10% DMSO, 10% Cremophor EL, 20% PEG400 and 60% H2O) was administered subcutaneously (s.c.) to the SD rats at zeitgeber time (ZT) 5 (when the start time of the light cycle was ZT0) in a volume of 5 mL/kg. The EEG and EMG recordings were performed for 3 hr after the compound administration. The time spent in wakefulness for 3 hr after administration (% of vehicle treatment) was calculated by using SleepSign.
# [2] = target: T1, human orexin type 2 receptor (Homo sapiens, UniProt O43614); test: Measurement of orexin type 2 receptor agonist activity (calcium fluorescence, CHO cells forcibly expressing human OX2 receptor); type: cell-based; settings: compound at 3 μM, DMSO = 0%, orexin A (human) 10 nM = 100%
# T1 construct: expressed in transfected cells
# T1 sequence (O43614 1-444): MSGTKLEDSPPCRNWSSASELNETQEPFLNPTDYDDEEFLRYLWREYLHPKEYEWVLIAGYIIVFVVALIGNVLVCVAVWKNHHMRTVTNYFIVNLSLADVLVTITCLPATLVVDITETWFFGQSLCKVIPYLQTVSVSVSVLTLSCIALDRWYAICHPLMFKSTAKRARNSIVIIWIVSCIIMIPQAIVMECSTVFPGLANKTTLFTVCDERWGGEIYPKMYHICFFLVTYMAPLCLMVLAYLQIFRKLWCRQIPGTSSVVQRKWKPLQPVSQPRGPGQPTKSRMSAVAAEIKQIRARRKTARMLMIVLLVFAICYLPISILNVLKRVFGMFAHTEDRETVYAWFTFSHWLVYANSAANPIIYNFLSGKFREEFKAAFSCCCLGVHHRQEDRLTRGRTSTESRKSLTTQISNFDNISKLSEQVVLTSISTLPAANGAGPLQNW
# How it was run: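 Agonism measured as Fluo-4 calcium fluorescence in CHO-K1 cells stably expressing human OX2 receptor, loaded 30 min at 37° C then 30 min at room temperature with probenecid. Signal recorded about 2 min 40 sec after compound; activity (%) normalised to DMSO (0%) and 10 nM human orexin A (100%).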
Compound,"Wakefulness time (% of vehicle treatment) (Mean, n = 2) ([1]; 1 mg/kg)","OX2R agonist activity (3 μM, %) [2] [%]","Wakefulness time (% of vehicle treatment) (Mean, n = 2) ([1]; 10 mg/kg)"
"CCCC1CCC(OCC2C(NS(=O)(=O)C3CC3)CCc3ccc(C)c(=O)n32)CC1 [Example 78, rel-N-[(3S,4R)-7-methyl-6-oxo-4-({[(1r,4S)-4-propylcyclohexyl]oxy}methyl)-1,3,4,6-tetrahydro-2H-quinolizin-3-yl]cyclopropanesulfonamide]",130.53 % of vehicle treatment,88,–
"Cc1ccc2n(c1=O)C(COC1CCC(C3CC3)CC1)C(NS(C)(=O)=O)CC2 [Example 111, rel-N-[(3S,4R)-4-({[(1s,4S)-4-cyclopropylcyclohexyl]oxy}methyl)-7-methyl-6-oxo-1,3,4,6-tetrahydro-2H-quinolizin-3-yl]methanesulfonamide]",126.37 % of vehicle treatment,98,–
"CC#CC1CCC(OCC2C(NS(C)(=O)=O)CCc3ccc(C)c(=O)n32)CC1 [Example 146, rel-N-[(3S,4R)-7-methyl-6-oxo-4-({[(1s,4S)-4-(prop-1-yn-1-yl)cyclohexyl]oxy}methyl)-1,3,4,6-tetrahydro-2H-quinolizin-3-yl]methanesulfonamide]",–,104,166.75 % of vehicle treatment
